Molecular target: T1, TLR2 (Homo sapiens, UniProt O60603)
T1 construct: host or cells: HEK293-TLR2
Experiment: Pam3CSK4-induced IL-8 secretion in HEK293-TLR2 cells (IL-8 ELISA)
Type: cell-based
Settings: compound 1 hour then co-treated with 50 nM Pam3CSK4, FIG. 15
Experimental: HEK293-TLR2 (expressed at endogenous levels of TLR1) and HEK293-Null cell lines were cultured in 96-well tissue culture plates (BD Biosciences) at a density of 1×10^4 cells/wells, 37° C., 95% air and 5% CO2 for 24 hours. In order to determine the agonist activity, a cell stimulation was achieved by treatment with 50 μM of compound and 50 nM of Pam3CSK4 (Invivogen, San Diego, Calif., USA). In order to determine the antagonist activity, cells were treated with various concentrations of compound for 1 hour and then co-treated with 50 nM of Pam3CSK4. The next day, IL-8 secretion was quantified by human IL-8 ELISA Ready-SET-Go! ® (Second generation) kit (eBioscience, San Diego, Calif., USA) according to the method of the manufacturer's guide, and the quantified results are illustrated in FIG. 15.
For the dose-dependent analysis of the top three compounds (S06690562, S01688300, S01382085) among the six compounds, the concentrations of the three compounds were varied to 12.5, 25, and 50 μM, and the secretion amount of IL-8 was analyzed as the above method. The results are illustrated in FIG. 16.

T1 sequence (O60603 21-784): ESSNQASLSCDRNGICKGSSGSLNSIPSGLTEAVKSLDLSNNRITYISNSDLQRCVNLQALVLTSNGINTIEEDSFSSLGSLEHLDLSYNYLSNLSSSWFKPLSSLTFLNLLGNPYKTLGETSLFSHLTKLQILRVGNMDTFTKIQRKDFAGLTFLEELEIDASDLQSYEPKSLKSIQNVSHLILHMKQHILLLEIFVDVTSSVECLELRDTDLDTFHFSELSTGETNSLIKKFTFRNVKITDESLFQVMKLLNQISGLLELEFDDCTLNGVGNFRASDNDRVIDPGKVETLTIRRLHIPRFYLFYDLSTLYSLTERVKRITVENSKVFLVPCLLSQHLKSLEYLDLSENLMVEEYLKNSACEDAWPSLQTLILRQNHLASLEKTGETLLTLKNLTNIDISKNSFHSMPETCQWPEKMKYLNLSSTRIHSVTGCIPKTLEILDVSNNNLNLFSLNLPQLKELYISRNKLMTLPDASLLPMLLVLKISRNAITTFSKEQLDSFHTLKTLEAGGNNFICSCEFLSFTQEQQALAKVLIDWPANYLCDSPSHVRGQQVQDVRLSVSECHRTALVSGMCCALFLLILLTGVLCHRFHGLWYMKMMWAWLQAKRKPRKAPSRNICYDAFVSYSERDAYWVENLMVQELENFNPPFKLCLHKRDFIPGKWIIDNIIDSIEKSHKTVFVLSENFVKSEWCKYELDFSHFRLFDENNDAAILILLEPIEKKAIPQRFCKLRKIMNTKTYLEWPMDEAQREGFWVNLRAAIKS

Compound	Pam3CSK4-induced IL-8 secretion amount
CC(C)Oc1cccc(CC(=O)N2CCCN(CC(N)=O)CC2)c1 [Compound S06696686]	greatly reduced
Cc1cc(C)c(NC(=O)CNC(=O)CN(C)CC(=O)NCC(F)(F)F)c(C)c1 [Compound S06690562]	greatly reduced
COC(=O)c1c(NC(=O)NCCN2CCOCC2)sc2c1CCC2 [Compound S01382085]	greatly reduced
CC1CCCN(C(C)CNC(=O)CCNC(=O)C2CC2C)C1 (centres unmarked) [Compound S02276077]	greatly reduced
CCN(Cc1ccncc1)Cc1cccc(OCC(O)CN2CCC(O)CC2)c1 (centres unmarked) [Compound S01688300]	greatly reduced

— US10308655B2, “Method of treating Crohn's disease comprising a TLR2 antagonist” (AJOU UNIVERSITY INDUSTRY-ACADEMIC COOPERATION FOUNDATION, priority 2015, dated 2019)
